Here are results for two compounds from US20230000827A1, “INHIBITORS OF HSP70 PROTEIN” (INSERM (INSTITUTE NATIONAL DE LA SANTÉ ET DE LA RECHERCHE …, priority 2019, published 2023).

Series [1] has as its target T1, HSP70/A18 interaction (Homo sapiens, UniProt P0DMV8).
T1 construct: expressed in transfected cells
Nature of the series: AptaScreen high-throughput yeast two-hybrid dual luminescence screening of A18/HSP70 association. The class given is cell-based. The settings on record: for IC50: dose-response, inhibition of A18 binding to HSP70; for Confirmation inhibition: hit confirmation; for inhibition at 10 µM: molecules screened at 10 μM. The protocol: Table 1. High throughput screening of chemical agonists of the A18 peptide aptamer. The screening was based on the ability of the molecules to inhibit the association A18/HSP70.
A high-throughput screening assay, AptaScreen™ (developed by Aptanomics SA; (Baines I C et al. Drug Discov Today. 2006;11:334-341; Rerole A L, et al. Cancer Res 20119;71:484-495)) was performed by the Company Imaxio (Lyon, France) on a library of almost 60,000 small molecules. The AptaScreen™ assay is based on an automated dual luminescence (luc and ruc reporter genes) yeast two-hybrid assay, with HSP70 expressed as a ‘bait’ and A18 aptamer expressed as a ‘prey’. The HSP70/A18 interaction directs the transcription of the luc reporter gene, while in the same assay a control protein/aptamer couple directs the transcription of the ruc reporter. A small molecule can be considered as ‘hit candidate’ when it inhibits the interaction between HSP70 and A18 (i.e. decreases the luciferase signal), but not the control interaction (i.e. no or little change in the ruc signal). Molecules were screened at a concentration of 10 μM and then hit candidates were confirmed by dose-response assays, following the standard protocol (Rerole A L, et al. Cancer Res 20119;71:484-495).
A high-throughput screening assay, AptaScreen™ (developed by Aptanomics SA; ^22,23), was performed by the Company Imaxio (Lyon, France) on a library of almost 60,000 small molecules including most of the marketed drugs. The AptaScreen™ assay is based on an automated dual luminescence (luc and ruc reporter genes) yeast two-hybrid assay, with HSP70 expressed as a ‘bait’ and a peptide aptamer (A18), the inventors previously isolated that bound to the ATP domain of HSP70 expressed as a ‘prey’ (Rerole A L, et al. Cancer Res 20119;71:484-495). A small molecule can be considered as ‘hit candidate’ when it inhibits the interaction between HSP70 and A18 (i.e. decreases the luciferase signal). Molecules were screened at a concentration of 10 μM. Eight molecules (hit candidates) were initially identified. From the dose-response studies, three of them were retained on the basis of their specificity and high inhibitory activity against A18 binding to HSP70 (Table 1 and 2).

Series [2] concerns the target T1, HSP70/A18 interaction. Nature of the series: Ability to block HSP70/A18 interaction (Biacore). The settings on record: block of HSP70/A18 interaction; read-out: Activity profil/50% effective concentration (EC50). The class given is binding. From the text:
Table 2. Selected “Hits” with high inhibitory activity against A18 binding to HSP70. Their chemical structure is shown as well as their ability to block HSP70/A18 interaction (Biacore).

In a further series the target is recombinant HSP70 (Homo sapiens, UniProt P0DMV8). Put plainly: HSP70 chaperone activity, protein thermolability (aggregation) assay. Format: biochemical. To be noted: 1 μM, heat shock 55° C., 1 h, recombinant HSP70 10 ng. The protocol:
FIG. 2: Small molecules hits A, B and C inhibit HSP70 chaperone activity. A) Protein aggregation was determined in the presence or absence of recombinant HSP70 (10 ng). When indicated A18 or molecules A, B and C were added (1 μM). B) Protein aggregation was determined in the presence or absence of recombinant HSP70, HSC70 or HSP90 (10 ng).
When indicated A18 or molecules A, B and C were added (1 μM). A0, a non-relevant peptide aptamer was used here as a negative control. Values are normalized for each HSP. 100% chaperone effect being the inhibition of protein aggregation induced by addition of the recombinant chaperones.
HSP70 chaperone activity was evaluated with a protein thermolability assay. HSF1−/− MEFs extracts were incubated 20 minutes on ice in lysis buffer (50 mM HEPES, 150 mM NaCl, 5 mM EDTA, 0.1% NP40) supplemented with protease inhibitors (Roche, France). […]
Cellular extracts, to which recombinant HSP70, HSP90 or HSC70 were added with or without the small molecules to test, were diluted to a final concentration of 2 mg. mL-1 in pH 7 Tris-HCl buffer and heated at 55° C. during 1 hour. After g−16,000 centrifugation at 4° C. during 10 minutes, supernatant native protein quantity was determined by Lowry method (Dc Assay Kits, Bio-Rad). This final protein concentration was then compared to the initial protein concentration in supernatants to quantify denatured proteins. […]

For series [3], the system named is Human cervix cancer Hela cells. Nature of the series: Chemo-sensitization to cisplatin, cell survival colorimetric assay, HeLa. The settings on record: molecule 2 μM with cisplatin 25 μM, 48 h. Format: cell-based. The protocol: (§1) FIG. 3. The chemical molecule hits sensitize cancer cells to cisplatin. A) Human cervix HeLa or B) mouse colorectal cancer CT-26 cells were incubated during 48 h with cisplatin (25 μM) in the presence of absence of molecules A, B and C (2 μM). Cell survival was measured by a colorimetric assay staining.
(§2) 3.5×10^4 adherent cells were plated onto 24-well culture plates in complete medium. Cells were treated with small molecules at various concentrations (1 μM to 30 μM) for 4 hours to determine cellular IC50. Then, cells of half of each 24-well culture plates were treated with cisplatin (CDDP, 25 μM) for 48 hours. Cell death was measured by the crystal violet colorimetric assay staining.
(§3) To study the effect of the molecules in cancer cells, the inventors used two different cancer cells lines: Human cervix cancer Hela cells and mouse colorectal cancer CT-26. Cells were treated with the small molecule hit (2 μM) either alone or together with cisplatin for 48 hours and cell survival was determined. […] Cells seem to die mainly by apoptosis, as detected by the amount of Annexin V positive/propidium iodide negative cells obtained after treatment with the molecule (FIG. 5). The inventors conclude that the hit candidates block HSP70 chaperone activity and sensitize cancer cells to apoptosis induced by cisplatin.

In series [4] the test system is mouse colorectal cancer CT-26. Put plainly: Chemo-sensitization to cisplatin, cell survival colorimetric assay, CT-26. Format: cell-based. The settings on record: CT-26, molecule 2 μM with cisplatin 25 μM, 48 h. The protocol: as §1, §2, §3
The next series is described as follows: Solubility (statement). The class given is physicochemical.

T1 sequence (P0DMV8 whole entry): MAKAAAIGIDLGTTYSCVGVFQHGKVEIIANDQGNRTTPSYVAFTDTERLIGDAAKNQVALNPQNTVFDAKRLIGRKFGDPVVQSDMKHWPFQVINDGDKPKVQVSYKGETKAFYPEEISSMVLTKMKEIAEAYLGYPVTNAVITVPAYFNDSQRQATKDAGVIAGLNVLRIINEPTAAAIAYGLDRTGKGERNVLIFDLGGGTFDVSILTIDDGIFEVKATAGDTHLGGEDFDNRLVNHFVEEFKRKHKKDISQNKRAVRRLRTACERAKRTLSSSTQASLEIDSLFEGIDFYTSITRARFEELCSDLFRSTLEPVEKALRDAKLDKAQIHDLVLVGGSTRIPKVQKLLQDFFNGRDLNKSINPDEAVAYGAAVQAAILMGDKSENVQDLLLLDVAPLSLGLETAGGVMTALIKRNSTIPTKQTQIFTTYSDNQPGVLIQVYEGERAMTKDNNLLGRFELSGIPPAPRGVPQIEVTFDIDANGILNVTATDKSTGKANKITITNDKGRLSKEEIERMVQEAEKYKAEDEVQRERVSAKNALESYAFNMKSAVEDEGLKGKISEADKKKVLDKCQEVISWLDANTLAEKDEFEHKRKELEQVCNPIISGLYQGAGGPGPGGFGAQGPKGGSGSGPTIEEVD
Sequence of recombinant HSP70 (P0DMV8 whole entry): as above

As to `CCOc1ccc(C)cc1S(=O)(=O)n1nnc2ccccc21` [Molecule B], at HSP70/A18 interaction [1], the HSP70 specificity result is “YES”; the IC50 (commonly the point on the concentration scale where inhibition reaches its midpoint) was determined as 0.2 µM; the Confirmation inhibition was found to be 59; the inhibition (commonly the change of the read-out against control, counted positive when it falls) at 10 µM amounted to 105%. For the same compound, the EC50 at HSP70/A18 interaction [2] is 0.2 µM. Besides, on recombinant HSP70, the “Inhibition of HSP70 chaperone activity” value is given as “much more important inhibition”. Besides, in series [3], the “Cell death induced by cisplatin” value is on record as “most important effect”. Further, the “Cell death induced by cisplatin” value in series [4] is listed as “most important effect”. Further, the Solubility entry in the series “Solubility (statement)” is on record as “hardly soluble”.
Turning to `O=C1N=C(N2CCCCC2)S/C1=C\c1ccccc1F` [Molecule A], on HSP70/A18 interaction [1], the HSP70 specificity entry is “YES”, the IC50 came out at 19.6 µM, the Confirmation inhibition turned out to be 34 and the inhibition at 10 µM is 105%. Besides, the EC50 on HSP70/A18 interaction [2] is 19.6 µM. Further, at recombinant HSP70, the “Inhibition of HSP70 chaperone activity” value is recorded as “only partially blocked”.
